# Measured values published in patent US20030138946A1.
# Where “and” joins values, the source holds several entries; their conditions need not be identical. Equal values may be shown once. Ends that are not written are not given here.
# Legend:
# [1] = target: L^d molecules complexed with QL9 peptide, on the cell surface (mouse) (UniProt P01887)
# [2] = target: recombinant biotinylated L^d immobilized on an avidin-coated support, with QL9 peptide (mouse) (UniProt P01897)
# [3] = target: L^d molecules complexed with QL9 peptide, on the cell surface (mouse) (UniProt P01887); assay: cell-based or functional assay
# [4] = target: L^d molecules complexed with p2Ca peptide, on transfected Drosophila S2 cells (mouse) (UniProt P01887); assay: cell-based or functional assay
# L^d molecules complexed with p2Ca peptide, on transfected Drosophila S2 cells (mouse), sequence (P01897 25-362, one chain of several): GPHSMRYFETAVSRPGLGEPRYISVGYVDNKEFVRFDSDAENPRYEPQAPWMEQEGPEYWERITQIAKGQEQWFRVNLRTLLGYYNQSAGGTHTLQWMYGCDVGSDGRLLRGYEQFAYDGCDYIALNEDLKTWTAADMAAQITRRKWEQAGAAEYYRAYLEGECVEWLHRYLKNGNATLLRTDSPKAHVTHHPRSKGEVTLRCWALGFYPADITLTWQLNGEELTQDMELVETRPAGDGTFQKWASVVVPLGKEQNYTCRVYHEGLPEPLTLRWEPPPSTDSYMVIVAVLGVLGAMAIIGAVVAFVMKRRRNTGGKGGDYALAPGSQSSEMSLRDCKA
# [5] = test system: B3/CD8 T-cell hybridoma; assay: Antigen presentation assay with B3/CD8 T-cell hybridoma (IL-2 via CTLL 3H thymidine); format: cell-based, murine; conditions: peptide added to culture medium or protein osmotically loaded
# Protocol: Osmotic loading of SC2 and 3T3 cells with ovalbumin protein was carried out as described by Moore, et al., Cell 54: 777-785 (1988). The assay procedure is as follows. In a 96-well dish, 1×10^5 Drosophila cells (with or without peptide/protein loaded) or 3T3 cells were cocultured with 1×10^5 B3/CD8 T-cell hybridoma cells in 200 μl of RPMI media supplemented with 10% fetal bovine serum. After 24 hours of incubation, 100 μl of the supernatant from these cultures was added to 100 μl of RPMI containing 5,000 CTLL cells. The cells were cocultured for 24 hours at 37° C. when 1 uCi of ^3H thymidine (Amersham) was added. After a further incubation of 15 hours at 37° C., the incorporation of radiolabel into the CTLL cells was determined by scintillation counting.
# Assays conducted with murine MHC also verified that the insect cells are capable of loading peptide onto the Class I molecules. Cells expressing as few as 200-500 MHC molecules containing a particular antigen can be detected by a T-cell. […] Upon antigenic stimulation, B3/CD8 produces IL-2, measured by ^3H thymidine incorporation in IL-2-dependent T-cell line CTLL (Gillis, et al., J. Immunol. 120: 2027 91978)). Thus, by measuring the amount of IL-2 produced, one can assay for T-cell recognition. […]
# [6] = target: T1, K^bsol (soluble H-2 K^b with murine β-2 microglobulin) (Mus musculus, UniProt P01901); format: binding
# T1 construct: The cDNAs encoding K^b α1α2α3 domains (274 residues) and murine β-2 microglobulin (99 residues); made in house; host or cells: Drosophila S2/M3 cells, purified from culture supernatant
# T1 sequence (P01901 22-295): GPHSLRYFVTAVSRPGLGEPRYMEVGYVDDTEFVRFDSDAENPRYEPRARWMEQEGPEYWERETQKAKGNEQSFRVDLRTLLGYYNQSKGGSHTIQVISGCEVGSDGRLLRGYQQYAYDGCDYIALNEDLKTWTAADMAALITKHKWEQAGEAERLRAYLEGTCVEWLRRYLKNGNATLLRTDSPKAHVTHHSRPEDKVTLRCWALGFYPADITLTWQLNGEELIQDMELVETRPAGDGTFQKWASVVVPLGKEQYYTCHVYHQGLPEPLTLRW
# T1 sequence (P01887 21-119 partner): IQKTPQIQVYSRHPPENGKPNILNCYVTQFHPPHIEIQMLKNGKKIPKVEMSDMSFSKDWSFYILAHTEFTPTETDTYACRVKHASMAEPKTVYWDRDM
# [7] = test system: CD8^+ 2C lymph node cells; assay: Primary proliferative response of CD8+ 2C lymph node cells to peptides presented by transfected fly cells (3HTdR); format: cell-based, mouse; conditions: peptide 10 μM
# Protocol: (§1) Using a standard tissue culture system (Cai, Z. and Sprent, J. (1994) J. Exp. Med. 179: 2005-2015), doses of 5×10^4 purified CD8^+ 2C lymph node (LN) cells were cultured at 37° C. with doses of 3×10^5 transfected fly cells ±peptides (10 μM final concentration). Peptides were synthesized by R. W. Johnson Pharmaceutical Research Institute (Sykulev, et al. (1994) Immunity 1: 15-22. Proliferative responses were measured by adding ^3HTdR (1 μCi/well) 8 hours prior to harvest. IL-2 production was measured by removing supernatants from the cultures at 48 hours and adding 50 μl supernatant to an IL-2 responsive indicator cell line (CTLL); proliferation of the indicator line was measured by addition of ^3HTdR. The data shown in Table 2 are the means of triplicate cultures. The transfected Drosophila S2 cells die rapidly at 37° C. and fail to incorporate ^3HTdR at this temperature.
# [8] = test system: CD8^+ 2C cells; assay: CD69 and CD25 expression on CD8+ 2C cells stimulated with transfected Drosophila cells plus peptide; format: cell-based, mouse; conditions: Drosophila cells expressing L^d alone; peptide 10 μM, 12 hours
# Protocol: TCR stimulation elicited a complex pattern of intracellular events which lead to early up-regulation of CD69 and CD25 (IL-2 receptor or IL-2R) on the cell surface. These changes are apparent within a few hours of stimulation and are followed by cytokine synthesis and cell proliferation. Drosophila cells were transfected with genes for L^d, L^d and B7.1 (L^d.B7), L^d and ICAM-1 (L^d.ICAM) or L^d, B7.1 and ICAM-1 (L^d.B7.1CAM). […] Purified CD8^+ 2C cells were incubated with various Drosophila cells plus a peptide (either p2Ca or QL9, 10 μM) in bulk (2 ml) culture for 12 hours and then stained for CD69 or CD25. Either p2Ca or QL9 presented by Drosophila cells transfected with L^d.B7, L^d.ICAM or L^d.B7.1CAM were effective in stimulating the up-regulation of CD69 and CD25.
# [9] = test system: CD8^+ 2C cells; assay: Dose-response of day 3 proliferation of CD8+ 2C cells to peptides on transfected Drosophila APC; format: cell-based, mouse
# Protocol: Responses to p2Ca (above) and QL9 (below) were measured by culturing 5×10^4 purified CD8^+ 2C cells with 2×10^5 Drosophila cells in the presence or absence of the indicated concentrations of peptides for 3 days. [^3H] TdR was added during the last 8 hours of culture; rIL-2 was added at a final concentration of 20 units/ml. The data are the mean of triplicate cultures. When supplemented with exogenous IL-2, however, both peptides stimulated significant proliferative responses at high doses (10 μM). The proliferative responses elicited by QL9 were far stronger than for p2Ca (note the large difference between the scales of x-axes of the upper and the lower panel).
# Dose-response relationships for proliferation on day 3 elicited by Drosophila cells transfected with L^d.B7.1CAM and presenting p2Ca peptide were compared to those elicited by Drosophila cells transfected with L^d.B7, L^d.ICAM or L^d.B7.1CAM presenting QL9 peptide. Drosophila APC (2×10^5 cells) were cultured with 5×10^4 CD8^+ 2C cells for three days in the presence or absence of peptides. [^3H] TdR was added during the last 8 hours of culture; no IL-2 was added to the cultures.
# [10] = test system: CD8^+ 2C lymph node cells; assay: IL-2 production by CD8+ 2C lymph node cells (CTLL indicator line 3HTdR); format: cell-based, mouse; conditions: peptide 10 μM
# Protocol: as §1
# [11] = test system: 2C+ T-cells; assay: Enrichment of 2C+ T-cells from a 1/99 mixture with C57BL/6 CD8+ cells (1B2 staining, flow cytofluorometry); format: cell-based, mouse
# Protocol: 2C+ T-cells were mixed with total CD8^+ cells from C57BL/6 mice at a 1/99 ratio and cells were cultured with immobilized L^d and anti-CD28 antibody in the presence of peptide QL9. IL-2 was added at day 2 of culture, and subsequently every other day. Cell activation and proliferation was noted, as evidenced by the formation of clumps, presence of enlarged cells that progressively spread in the well. At day 12 of culture, cells were harvested and percentage of cells expressing the 2C T-cell receptor was assessed by staining with the anticlonotypic antibody 1B2 and analysis by flow cytofluorometry: 43% of the cells cultured initially in the presence of peptide QL9 were 2C+, (FIG. 22) whereas 49% of the cells expressed 2C after stimulation with peptide p2Ca (FIG. 23), and 22% with peptide SL9 (FIG. 24). […] Enrichment was observed even with SL9, a peptide that makes a low affinity complex with the 2C T-cell receptor. This method thus can specifically activate and enrich a small subpopulation of antigen specific T-cells out of a heterogenous mixture of T-cells.
# [12] = test system: 2C+ T-cells; format: cell-based, mouse
# [13] = target: T2, soluble H-2 K^b (K^bsol): heterodimer of truncated K^b heavy chain and murine β-2 microglobulin, purified from Drosophila cells (murine), P01901
# T2 chain 1: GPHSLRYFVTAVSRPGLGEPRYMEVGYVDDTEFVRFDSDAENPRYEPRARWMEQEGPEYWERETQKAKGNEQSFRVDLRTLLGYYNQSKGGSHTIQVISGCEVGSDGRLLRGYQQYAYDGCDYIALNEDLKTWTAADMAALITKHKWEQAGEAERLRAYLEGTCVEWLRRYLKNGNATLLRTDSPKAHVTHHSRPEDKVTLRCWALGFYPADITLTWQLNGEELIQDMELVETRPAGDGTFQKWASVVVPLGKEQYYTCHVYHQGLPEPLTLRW
# T2 chain 2: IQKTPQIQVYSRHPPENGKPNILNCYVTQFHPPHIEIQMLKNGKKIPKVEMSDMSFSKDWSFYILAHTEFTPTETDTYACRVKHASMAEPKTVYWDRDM
# L^d molecules complexed with QL9 peptide, on the cell surface (mouse), sequence (P01897 25-362, one chain of several): as the sequence (P01897 25-362, one chain of several) above
# recombinant biotinylated L^d immobilized on an avidin-coated support, with QL9 peptide (mouse), sequence (P01897 25-309): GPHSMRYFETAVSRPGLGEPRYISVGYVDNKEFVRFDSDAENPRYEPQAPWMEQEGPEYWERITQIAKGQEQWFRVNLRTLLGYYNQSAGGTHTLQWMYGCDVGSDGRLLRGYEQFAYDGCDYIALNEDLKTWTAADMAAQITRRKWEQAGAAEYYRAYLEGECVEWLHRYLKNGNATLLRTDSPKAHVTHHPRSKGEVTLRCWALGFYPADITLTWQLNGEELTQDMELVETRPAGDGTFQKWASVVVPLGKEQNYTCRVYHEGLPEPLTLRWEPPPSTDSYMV
molecule,measurement,setting,value
2C T-cell receptor on T-cells of 2C TCR transgenic mice,percent of the lymphocytes included in rosettes,[1],30% and 40%
same,percent of the lymphocytes included in rosettes,[2],30% and 40%
same,"Proliferation (Day 3), ^3HTdR incorporation; fly cells expressing L^d",[3],200 cpm
same,"Proliferation (Day 3), ^3HTdR incorporation; fly cells expressing L^d + B7.1",[3],60900 cpm
same,"Proliferation (Day 3), ^3HTdR incorporation; fly cells expressing L^d + ICAM-1",[3],73900 cpm
same,"Proliferation (Day 3), ^3HTdR incorporation; fly cells expressing L^d",[4],200 cpm
same,"Proliferation (Day 3), ^3HTdR incorporation; fly cells expressing L^d + B7.1",[4],300 cpm
same,"Proliferation (Day 3), ^3HTdR incorporation; fly cells expressing L^d + ICAM-1",[4],1500 cpm
EQLESIINFEKLTEWTSSNVMEER [OVA-24],T-cell recognition (IL-2 response) of K^b Drosophila cells,[5],responded well
same,affinity lower than that of OVA-8,[6],"more than 10,000 fold"
LSPFPFDL [p2Ca],"Proliferation (Day 3) ^3HTdR incorporation, fly cells expressing L^d",[7]; APC L^d,0.2 cpm × 10^3
same,"Proliferation (Day 3) ^3HTdR incorporation, fly cells expressing L^d + B7.1",[7]; APC L^d + B7.1,0.3 cpm × 10^3
same,"Proliferation (Day 3) ^3HTdR incorporation, fly cells expressing L^d + B7.1 + ICAM-1",[7]; APC L^d + B7.1 + ICAM-1,142.0 cpm × 10^3
same,"Proliferation (Day 3) ^3HTdR incorporation, fly cells expressing L^d + ICAM-1",[7]; APC L^d + ICAM-1,1.5 cpm × 10^3
same,"Proliferation (Day 3) ^3HTdR incorporation, L^d + B7.1 combined with L^d + ICAM-1",[7]; mixture of two APC lines,1.5 cpm × 10^3
same,induction of CD69 and CD25 expression,[8],barely detectable
same,proliferation of 2C CD8+ cells,"[9]; Drosophila cells with L^d alone, no exogenous lymphokines",failed
same,peptide concentration required for optimal day 3 proliferative response,"[9]; L^d.B7.1CAM APC, no IL-2",10 µM
same,"IL-2 Production (Day 2) ^3HTdR incorporation, fly cells expressing L^d",[10]; APC L^d,0.2 cpm × 10^3
same,"IL-2 Production (Day 2) ^3HTdR incorporation, fly cells expressing L^d + B7.1",[10]; APC L^d + B7.1,0.2 cpm × 10^3
same,"IL-2 Production (Day 2) ^3HTdR incorporation, fly cells expressing L^d + B7.1 + ICAM-1",[10]; APC L^d + B7.1 + ICAM-1,64.6 cpm × 10^3
same,"IL-2 Production (Day 2) ^3HTdR incorporation, fly cells expressing L^d + ICAM-1",[10]; APC L^d + ICAM-1,0.1 cpm × 10^3
same,"IL-2 Production (Day 2) ^3HTdR incorporation, L^d + B7.1 combined with L^d + ICAM-1",[10]; mixture of two APC lines,0.3 cpm × 10^3
same,enrichment in specific T-cells after 12 days,[11]; start 1/99,49 times
same,cells expressing the 2C T-cell receptor (2C+) at day 12,"[11]; start 1/99 2C+/total CD8+, immobilized L^d and anti-CD28, IL-2 from day 2",49%
same,activation (mitogenesis) of 2C+ T-cells,[12],able to activate
RGYVYQGL (modifications not checked) [[^125I]VSV-8 (radioiodinated VSV-8 peptide)],percent of the total labeled peptide able to bind,[13],65%
